In patent publication US6218379A, “Tricyclic carbacephems” (Hoffmann-la Roche Inc., priority 1996, dated 2001):
≈ marks a conversion by molar mass, not a printed value. Structures can show the parent of a compound that is named as a salt.

Assays:
[1] = test system: Staphylococcus aureus 887; assay: Antibacterial activity in vitro (MIC) against Staphylococcus aureus 887; assay type: cell-based; details: read-out: MIC S. aureus 887
Procedure: (§1) The minimum inhibitory concentration in vitro (MIC in μg/ml) of a compound of formula I against Citrobacter freundii 1982 and Staphylococcus aureus 887 is measured and compiled in Table 2.

[2] = test system: Citrobacter freundii 1982; assay: Antibacterial activity in vitro (MIC) against Citrobacter freundii 1982; assay type: cell-based; details: read-out: MIC C. freundii 1982
Procedure: as §1

MIC [1] | MIC [2] | Compound
0.25 µg/mL (≈ 0.512 µM) | 8 µg/mL (≈ 16.4 µM) | CC(=O)N1C[C@H]2CC(/C=C/c3ccc[n+](CC(=O)Nc4ccc(O)cc4)c3)=C(C(=O)[O-])N3C(=O)[C@@H]1[C@@H]23 [Example 70, (E)-(1aS,3aR,6bR)-2-Acetyl-5-[2-[1-[(4-hydroxyphenylcarbamoyl)-methyl]-pyridin-1-ium-3-yl)-vinyl]-1-oxo-1a,2,3,3a,4,6b-hexahydro-1H-2,6a-diaza-cyclobut[cd]indene-6-carboxylate]
0.5 µg/mL | 64 µg/mL | CC(=O)N1C[C@H]2CC(/C=C/c3cnc4ccccc4c3)=C(C(=O)O)N3C(=O)[C@@H]1[C@@H]23 [Example 63, (E)-(1aS,3aR,6bR)-2-Acetyl-1-oxo-5-(2-quinolin-3-yl-vinyl)-1a,2,3,3a,4,6b-hexahydro-1H-2,6a-diaza-cyclobut[cd]indene-6-carboxylic acid sodium salt (1:1)]
8 µg/mL | 16 µg/mL | O=C(O)C1=C(/C=C2\CCN(Cc3cccs3)C2=O)C[C@@H]2CN[C@@H]3C(=O)N1[C@H]23 [Example 16, (E)-(1aS,3aR,6bR)-1-Oxo-5-[2-oxo-1-(thiophen-2-ylmethyl)-pyrrolidin-3-ylidenemethyl]-1a,2,3,3a,4,6b-hexahydro-1H-2,6a-diaza-cyclobut[cd]indene-6-carboxylic acid trifluoroacetate (1:0.75)]
4 µg/mL | 32 µg/mL | O=C(O)C1=C(/C=C2\CCN(Cc3cccs3)C2=O)C[C@@H]2CN(C(=O)C(F)(F)F)[C@@H]3C(=O)N1[C@H]23 [Example 35, (E)-(1aS,3aR,6bR)-1-Oxo-5-[2-oxo-1-(thiophen-2-yl-methyl)-pyrrolidin-3-ylidenemethyl]-2-trifluoroacetyl-1a,2,3,3a,4,6b-hexahydro-1H-2,6a-diaza-cyclobut[cd]indene-6-carboxylic acid sodium salt (1:1)]
4 µg/mL | 64 µg/mL | O=C(O)C1=C(/C=C/c2ccc(O)cc2)C[C@@H]2CN[C@@H]3C(=O)N1[C@H]23 [Example 52, (E)-(1aS,3aR,6bR)-1-Oxo-5-[2-(4-hydroxy-phenyl)-vinyl]-1a,2,3,3a,4,6b-hexahydro-1H-2,6a-diaza-cyclobut[cd]indene-6-carboxylic acid trifluoroacetate (1:0.83)]
4 µg/mL | 8 µg/mL | O=C(O)C1=C(/C=C2\CCN(C3CC3)C2=O)C[C@@H]2CN(C(=O)C(F)(F)F)[C@@H]3C(=O)N1[C@H]23 [Example 36, (E)-(1aS,3aR,6bR)-1-Oxo-5-[2-oxo-1-cyclopropyl-pyrrolidin-3-ylidenemethyl]-2-trifluoroacetyl-1a,2,3,3a,4,6b-hexahydro-1H-2,6a-diaza-cyclobut[cd]indene-6-carboxylic acid sodium salt (1:1)]
16 µg/mL | 1 µg/mL | CC(=O)N1C[C@H]2CC(/C=C3\CCN(C4CC4)C3=O)=C(C(=O)O)N3C(=O)[C@@H]1[C@@H]23 [Example 29, (E)-(1aS,3aR,6bR)-2-Acetyl-1-oxo-5-[1-cyclopropyl-2-oxo-pyrrolidin-3-ylidenemethyl]-1a,2,3,3a,4,6b-hexahydro-1H-2,6a-diaza-cyclobut[cd]indene-6-carboxylic acid sodium salt (1:1)]
4 µg/mL | 64 µg/mL | O=C(O)C1=C(/C=C2\CCN(c3ccccc3)C2=O)C[C@@H]2CN(C(=O)C(F)(F)F)[C@@H]3C(=O)N1[C@H]23 [Example 37, (E)-(1aS,3aR,6bR)-1-Oxo-5-[2-oxo-1-phenyl-pyrrolidin-3-ylidenemethyl]-2-trifluoroacetyl-1a,2,3,3a,4,6b-hexahydro-1H-2,6a-diaza-cyclobut[cd]indene-6-carboxylic acid sodium salt (1:1)]
0.5 µg/mL (≈ 1.12 µM) | 16 µg/mL (≈ 35.8 µM) | CC(=O)N1C[C@H]2CC(/C=C/c3cc4ccccc4[n+](CC(N)=O)c3)=C(C(=O)[O-])N3C(=O)[C@@H]1[C@@H]23 [Example 68, (E)-(1aS,3aR,6bR)-2-Acetyl-5-[2-(1-carbamoylmethyl-quinolin-1-ium-3-yl)-vinyl]-1-oxo-1a,2,3,3a,4,6b-hexahydro-1H-2,6a-diaza-cyclobut[cd]indene-6-carboxylate]
8 µg/mL | 32 µg/mL | O=C(O)C1=C(/C=C2\CCN(Cc3ccc([N+](=O)[O-])cc3)C2=O)C[C@@H]2CN[C@@H]3C(=O)N1[C@H]23 [Example 15, (E)-(1aS,3aR,6bR)-1-Oxo-5-[2-oxo-1-(4-nitrobenzyl)-pyrrolidin-3-ylidenemethyl]-1a,2,3,3a,4,6b-hexahydro-1H-2,6a-diaza-cyclobut[cd]indene-6-carboxylic acid trifluoroacetate (1:0.77)]
4 µg/mL | 64 µg/mL | O=C(O)C1=C(/C=C/c2cnc3ccccc3c2)C[C@@H]2CN[C@@H]3C(=O)N1[C@H]23 [Example 55, (E)-(1aS,3aR,6bR)-1-Oxo-5-(2-quinolin-3-yl-vinyl)-1a,2,3,3a,4,6b-hexahydro-1H-2,6a-diaza-cyclobut[cd]indene-6-carboxylic acid trifluoroacetate (1:1.4)]
8 µg/mL | 64 µg/mL | O=C(O)C1=C(/C=C/c2ccccc2)C[C@@H]2CN[C@@H]3C(=O)N1[C@H]23 [Example 49, (E)-(1aS,3aR,6bR)-1-Oxo-5-styryl-1a,2,3,3a,4,6b-hexahydro-1H-2,6a-diaza-cyclobut[cd]indene-6-carboxylic acid trifluoroacetate]
8 µg/mL | 2 µg/mL | CC(=O)N1C[C@H]2CC(/C=C3\CCN(CC(C)C)C3=O)=C(C(=O)O)N3C(=O)[C@@H]1[C@@H]23 [Example 28, (E)-(1aS,3aR,6bR)-2-Acetyl-1-oxo-5-[2-oxo-1-isobutyl-pyrrolidin-3-ylidenemethyl]-1a,2,3,3a,4,6b-hexahydro-1H-2,6a-diaza-cyclobut[cd]indene-6-carboxylic acid sodium salt (1:1)]
0.25 µg/mL (≈ 0.631 µM) | 16 µg/mL (≈ 40.4 µM) | CC(=O)N1C[C@H]2CC(/C=C/c3ccc[n+](CC(N)=O)c3)=C(C(=O)[O-])N3C(=O)[C@@H]1[C@@H]23 [Example 67, (E)-(1aS,3aR,6bR)-2-Acetyl-5-[2-(1-carbamoylmethyl-pyridin-1-ium-3-yl)-vinyl]-1-oxo-1a,2,3,3a,4,6b-hexahydro-1H-2,6a-diaza-cyclobut[cd]indene-6-carboxylate]
4 µg/mL | 8 µg/mL | O=C(O)C1=C(/C=C2\CCN(c3cccc([N+](=O)[O-])c3)C2=O)C[C@@H]2CN(C(=O)C(F)(F)F)[C@@H]3C(=O)N1[C@H]23 [Example 34, (E)-(1aS,3aR,6bR)-1-Oxo-5-[2-oxo-1-(3-nitro-phenyl)-pyrrolidin-3-ylidenemethyl]-2-trifluoroacetyl-1a,2,3,3a,4,6b-hexahydro-1H-2,6a-diaza-cyclobut[cd]indene-6-carboxylic acid sodium salt (1:1)]
8 µg/mL | 62 µg/mL | CCOC(=O)N1CCC(N2CC/C(=C\C3=C(C(=O)O)N4C(=O)[C@@H]5[C@H]4[C@H](C3)CN5C(C)=O)C2=O)CC1 [Example 32, (E)-(1aS,3aR,6bR)-2-Acetyl-1-oxo-5-[1-(1-ethoxycarbonyl-piperidin-4-yl)-2-oxo-pyrrolidin-3-ylidenemethyl]-1a,2,3,3a,4,6b-hexahydro-1H-2,6a-diaza-cyclobut[cd]indene-6-carboxylic acid sodium salt (1:1)]
64 µg/mL (≈ 161 µM) | 64 µg/mL (≈ 161 µM) | CC(=O)N1C[C@H]2CC(/C=C/c3cccc[n+]3CC(N)=O)=C(C(=O)[O-])N3C(=O)[C@@H]1[C@@H]23 [Example 72, (E)-(1aS,3aR,6bR)-2-Acetyl-5-[2-(1-carbamoylmethyl-pyridin-1-ium-2-yl)-vinyl]-1-oxo-1a,2,3,3a,4,6b-hexahydro-1H-2,6a-diaza-cyclobut[cd]indene-6-carboxylate]
2 µg/mL | 8 µg/mL | CC(=O)N1C[C@H]2CC(/C=C3\CCN(c4ccccc4)C3=O)=C(C(=O)O)N3C(=O)[C@@H]1[C@@H]23 [Example 31, (E)-(1aS,3aR,6bR)-2-Acetyl-1-oxo-5-[2-oxo-1-phenyl-pyrrolidin-3-ylidenemethyl]-1a,2,3,3a,4,6b-hexahydro-1H-2,6a-diaza-cyclobut[cd]indene-6-carboxylic acid sodium salt (1:1)]
0.25 µg/mL (≈ 0.549 µM) | 32 µg/mL (≈ 70.3 µM) | CC(=O)N1C[C@H]2CC(/C=C/c3ccc[n+](C/C=C/c4ccccc4)c3)=C(C(=O)[O-])N3C(=O)[C@@H]1[C@@H]23 [Example 69, (1aS,3aR,6bR)-2-Acetyl-1-oxo-5-[(E)-2-[1-[(E)-3-phenylallyl]-pyridin-1-ium-3-yl)-vinyl]-1a,2,3,3a,4,6b-hexahydro-1H-2,6a-diaza-cyclobut[cd]indene-6-carboxylate]

Compound | MIC [1] | MIC [2]
O=C(O)C1=C(/C=C/c2cccnc2)C[C@@H]2CN[C@@H]3C(=O)N1[C@H]23 [Example 53, (E)-(1aS,3aR,6bR)-1-Oxo-5-(2-pyridin-3-yl-vinyl)-1a,2,3,3a,4,6b-hexahydro-1H-2,6a-diaza-cyclobut[cd]indene-6-carboxylic acid trifluoroacetate (1:1.5)] | 2 µg/mL | 64 µg/mL
O=C(O)C1=C(/C=C/c2ccccn2)C[C@@H]2CN[C@@H]3C(=O)N1[C@H]23 [Example 50, (E)-(1aS,3aR,6bR)-1-Oxo-5-(2-pyridin-2-yl-vinyl)-1a,2,3,3a,4,6b-hexahydro-1H-2,6a-diaza-cyclobut[cd]indene-6-carboxylic acid trifluoroacetate (1:1.58)] | 64 µg/mL | 64 µg/mL
